The term IC50 denotes the point on the concentration scale where inhibition reaches its midpoint.

This assay has as its target T1, human TYRO3 (Homo sapiens, UniProt Q06418).
T1 construct: purchased Invitrogen
T1 sequence (Q06418 41-890): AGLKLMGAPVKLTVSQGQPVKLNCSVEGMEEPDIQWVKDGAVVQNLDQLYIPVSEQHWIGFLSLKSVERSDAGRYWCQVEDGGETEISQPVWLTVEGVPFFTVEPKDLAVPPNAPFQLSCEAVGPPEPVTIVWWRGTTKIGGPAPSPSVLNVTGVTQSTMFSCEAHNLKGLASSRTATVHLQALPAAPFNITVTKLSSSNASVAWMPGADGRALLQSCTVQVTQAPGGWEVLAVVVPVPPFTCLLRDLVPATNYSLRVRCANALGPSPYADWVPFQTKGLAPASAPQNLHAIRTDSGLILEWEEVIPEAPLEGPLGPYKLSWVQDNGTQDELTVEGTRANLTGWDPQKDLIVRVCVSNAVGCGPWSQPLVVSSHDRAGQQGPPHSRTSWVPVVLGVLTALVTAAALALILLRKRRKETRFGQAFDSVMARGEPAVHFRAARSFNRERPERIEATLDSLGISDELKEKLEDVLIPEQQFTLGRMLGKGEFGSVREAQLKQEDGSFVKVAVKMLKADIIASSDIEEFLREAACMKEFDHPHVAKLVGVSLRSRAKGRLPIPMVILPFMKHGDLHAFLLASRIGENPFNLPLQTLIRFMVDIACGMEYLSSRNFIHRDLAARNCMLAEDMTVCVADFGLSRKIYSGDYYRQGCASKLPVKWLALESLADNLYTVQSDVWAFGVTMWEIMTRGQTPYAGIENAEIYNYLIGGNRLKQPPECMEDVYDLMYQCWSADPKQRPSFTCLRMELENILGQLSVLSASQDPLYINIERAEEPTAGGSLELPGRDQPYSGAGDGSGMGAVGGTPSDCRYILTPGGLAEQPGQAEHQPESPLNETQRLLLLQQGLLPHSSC
Briefly: HTRF KinEASE-TK biochemical potency assay, TYRO3. The settings on record: 1 nM TYRO3, 700 μM ATP, 800 nM TK Substrate-biotin. The method in brief: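 Enzyme (final 5 nM AXL; 1 nM TYRO3 or MER) plus compound, 1 h RT → add biotinylated TK substrate (800 nM final) and ATP (700 μM final) → 2 h RT → stop into HTRF detection mix → read 665/620 nm. Activity normalised to DMSO and pre-stopped blanks.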
`COCCOc1ccc(-c2n[nH]c3ncc(-c4ccc5c(c4)CC[C@@H](N4C6COCC4C6)CC5)cc23)cc1` [Example 123, 6-[(7S)-2-{3-[4-(2-methoxyethoxy)phenyl]-2H-pyrazolo[3,4-b]pyridin-5-yl}-6,7,8,9-tetrahydro-5H-benzo[7]annulen-7-yl]-3-oxa-6-azabicyclo[3.1.1]heptane] gave a half-inhibitory concentration (IC50) of 0.1 to 1 µM. In the case of `C[C@@H]1CCCN1C1(C)CCc2ccc(-c3cnc4[nH]nc(-c5ccc(C(=O)N[C@@H]6CCOC6)cc5)c4c3)cc2CC1` (stereo partly drawn) [Example 99, 4-(5-{7-Methyl-7-[(2R)-2-methylpyrrolidin-1-yl]-6,7,8,9-tetrahydro-5H-benzo[7]annulen-2-yl}-1H-pyrazolo[3,4-b]pyridin-3-yl)-N-[(3R)-oxolan-3-yl]benzamide] it was above 1 µM; in that of `COCCS(=O)(=O)c1ccc(-c2n[nH]c3ncc(-c4ccc5c(c4)CCC(C)(N4CCC[C@H]4C)CC5)cc23)cc1` (stereo partly drawn) [Example 111, (2R)-1-(2-{3-[4-(2-Methoxyethanesulfonyl)phenyl]-1H-pyrazolo[3,4-b]pyridin-5-yl}-7-methyl-6,7,8,9-tetrahydro-5H-benzo[7]annulen-7-yl)-2-methylpyrrolidine], below 0.1 µM; in that of `C[C@@H]1CCCN1C1(C)CCc2ccc(-c3cnc4[nH]nc(-c5cnc(C(C)(C)O)c(Cl)c5)c4c3)cc2CC1` (stereo partly drawn) [Example 98, 2-[3-Chloro-5-(5-{7-methyl-7-[(2R)-2-methylpyrrolidin-1-yl]-6,7,8,9-tetrahydro-5H-benzo[7]annulen-2-yl}-1H-pyrazolo[3,4-b]pyridin-3-yl)pyridin-2-yl]propan-2-ol], 0.1 to 1 µM. `CC(C)(O)c1ccc(-c2n[nH]c3ncc(-c4ccc5c(c4)CC4CCC(C5)C4N4CCCC4)cc23)cc1Cl` (centres unmarked) [Example 61, 2-(2-Chloro-4-{5-[13-(pyrrolidin-1-yl)tricyclo[8.2.1.0^3,8]trideca-3,5,7-trien-5-yl]-1H-pyrazolo[3,4-b]pyridin-3-yl}phenyl)propan-2-ol]: the IC50 was above 1 µM. Consider `C[C@@H]1CCCN1C1CCc2ccc(-c3cnc4[nH]nc(-c5ccc(C(C)(C)O)c(Cl)c5)c4c3)cc2CC1` (stereo partly drawn) [Example 35, 2-(2-Chloro-4-(5-(7-((R)-2-methylpyrrolidin-1-yl)-6,7,8,9-tetrahydro-5H-benzo[7]annulen-2-yl)-1H-pyrazolo[3,4-b]pyridin-3-yl)phenyl)propan-2-ol], for which the IC50 was 0.1 to 1 µM. On to `CC(C)(O)c1ccc(-c2n[nH]c3ncc(-c4ccc5c(c4)CCN(C4CCCC4)CC5)cc23)cc1Cl` [Example 12, 2-{2-Chloro-4-[5-(3-cyclopentyl-2,3,4,5-tetrahydro-1H-3-benzazepin-7-yl)-1H-pyrazolo[3,4-b]pyridin-3-yl]phenyl}propan-2-ol], for which the IC50 was above 1 µM.

In turn, `O=S(=O)(c1ccc(-c2n[nH]c3ncc(-c4ccc5c(c4)CCN(CC4CCOC4)CC5)cc23)cc1)C1CC1` (centres unmarked) [Example 27, 7-{3-[4-(Cyclopropanesulfonyl)phenyl]-1H-pyrazolo[3,4-b]pyridin-5-yl}-3-[(oxolan-3-yl)methyl]-2,3,4,5-tetrahydro-1H-3-benzazepine] had an IC50 above 1 µM. For the molecule `Cc1cc(-c2n[nH]c3ncc(-c4ccc5c(c4)CC[C@@H](N4CCCC4)CC5)cc23)cc(Cl)c1C(N)=O` [Example 50, 2-Chloro-6-methyl-4-{5-[(7S)-7-(pyrrolidin-1-yl)-6,7,8,9-tetrahydro-5H-benzo[7]annulen-2-yl]-1H-pyrazolo[3,4-b]pyridin-3-yl}benzamide], the IC50 was below 0.1 µM. The molecule `Cc1cc(-c2n[nH]c3ncc(-c4ccc5c(c4)CCN(C4CC4)CC5)cc23)ccc1C(=O)N1CCNCC1` [Example 119, 3-Cyclopropyl-7-{3-[3-methyl-4-(piperazine-1-carbonyl)phenyl]-1H-pyrazolo[3,4-b]pyridin-5-yl}-2,3,4,5-tetrahydro-1H-3-benzazepine] gave a 50% inhibitory concentration (IC50) below 0.1 µM.

The molecule `CC(C)(O)c1ccc(-c2n[nH]c3ncc(-c4ccc5c(c4)CCN(C4CCCC4)CC5)cc23)cn1` [Example 10, 2-{5-[5-(3-Cyclopentyl-2,3,4,5-tetrahydro-1H-3-benzazepin-7-yl)-1H-pyrazolo[3,4-b]pyridin-3-yl]pyridin-2-yl}propan-2-ol] registered an IC50 of 0.1 to 1 µM. In the case of `C[C@H]1CCCN1C1CCc2ccc(-c3cnc4[nH]nc(-c5ccc(S(=O)(=O)C6CC6)cc5)c4c3)cc2CC1` (stereo partly drawn) [Example 24, 3-(4-(Cyclopropylsulfonyl)phenyl)-5-(7-((S)-2-methylpyrrolidin-1-yl)-6,7,8,9-tetrahydro-5H-benzo[7]annulen-2-yl)-1H-pyrazolo[3,4-b]pyridine] it was 0.1 to 1 µM; in that of `O=S(=O)(c1ccc(-c2n[nH]c3ncc(-c4ccc5c(c4)CCN(C4CCOCC4)CC5)cc23)cc1)C1CC1` [Example 26, 7-{3-[4-(Cyclopropanesulfonyl)phenyl]-1H-pyrazolo[3,4-b]pyridin-5-yl}-3-(oxan-4-yl)-2,3,4,5-tetrahydro-1H-3-benzazepine], 0.1 to 1 µM; in that of `O=C([C@H]1CCCN1)N1CCc2ccc(-c3cnc4[nH]nc(-c5ccc(S(=O)(=O)C6CC6)cc5)c4c3)cc2CC1` [Example 113, 7-{3-[4-(Cyclopropanesulfonyl)phenyl]-1H-pyrazolo[3,4-b]pyridin-5-yl}-3-[(2R)-pyrrolidine-2-carbonyl]-2,3,4,5-tetrahydro-1H-3-benzazepine], 0.1 to 1 µM.

In the case of `COCCOc1ccc(-c2n[nH]c3ncc(-c4ccc5c(c4)CCC(C)(N4CCC[C@H]4C)CC5)cc23)cc1` (stereo partly drawn) [Example 110, 3-(4-(2-Methoxyethoxy)phenyl)-5-(7-methyl-7-((R)-2-methylpyrrolidin-1-yl)-6,7,8,9-tetrahydro-5H-benzo[7]annulen-2-yl)-1H-pyrazolo[3,4-b]pyridine], the IC50 was 0.1 to 1 µM. In the case of `CC(C)(O)c1ccc(-c2n[nH]c3ncc(-c4ccc5c(c4)CCC(N4CCC[C@@H]4CO)CC5)cc23)cc1Cl` (stereo partly drawn) [Example 21, 2-[2-Chloro-4-(5-{7-[(2R)-2-(hydroxymethyl)pyrrolidin-1-yl]-6,7,8,9-tetrahydro-5H-benzo[7]annulen-2-yl}-1H-pyrazolo[3,4-b]pyridin-3-yl)phenyl]propan-2-ol] it was 0.1 to 1 µM; in that of `CN(C)C(=O)c1ccc(-c2n[nH]c3ncc(-c4ccc5c(c4)CC[C@@H](N4C6COCC4C6)CC5)cc23)cc1` [Example 125, N,N-Dimethyl-4-{5-[(7S)-7-{3-oxa-6-azabicyclo[3.1.1]heptan-6-yl}-6,7,8,9-tetrahydro-5H-benzo[7]annulen-2-yl]-2H-pyrazolo[3,4-b]pyridin-3-yl}benzamide], 0.1 to 1 µM; in that of `CS(=O)(=O)N1CCC(c2n[nH]c3ncc(-c4ccc5c(c4)CCC(N4CCCC4)CC5)cc23)CC1` (centres unmarked) [Example 23, 1-Methanesulfonyl-4-{5-[7-(pyrrolidin-1-yl)-6,7,8,9-tetrahydro-5H-benzo[7]annulen-2-yl]-1H-pyrazolo[3,4-b]pyridin-3-yl}piperidine], 0.1 to 1 µM.

Take `C[C@@H]1CCCN1[C@@H]1CCc2cc(-c3cnc4[nH]nc(-c5ccc(S(=O)(=O)C6CC6)cc5)c4c3)cnc2CC1` [Example 101, (2R)-1-(3-{3-[4-(Cyclopropanesulfonyl)phenyl]-1H-pyrazolo[3,4-b]pyridin-5-yl}-5H,6H,7H,8H,9H-cyclohepta[b]pyridin-7-yl)-2-methylpyrrolidine]: the IC50 was 0.1 to 1 µM. `O=S(=O)(c1ccc(-c2n[nH]c3ncc(-c4ccc5c(c4)CC[C@@H](N4CCCC4)CC5)cc23)cc1)C1CC1` [Example 40, (S)-3-(4-(Cyclopropylsulfonyl)phenyl)-5-(7-(pyrrolidin-1-yl)-6,7,8,9-tetrahydro-5H-benzo[7]annulen-2-yl)-1H-pyrazolo[3,4-b]pyridine]: the IC50 is below 0.1 µM. The molecule `C[C@@H]1CCCN1C1CCc2ccc(-c3cnc4[nH]nc(-c5ccc(C(C)(C)O)cn5)c4c3)cc2CC1` (stereo partly drawn) [Example 97, 2-[6-(5-{7-[(2R)-2-Methylpyrrolidin-1-yl]-6,7,8,9-tetrahydro-5H-benzo[7]annulen-2-yl}-1H-pyrazolo[3,4-b]pyridin-3-yl)pyridin-3-yl]propan-2-ol] gave a half-inhibitory concentration (IC50) of 0.1 to 1 µM.

On to `C[C@@H]1CCCN1C1CCc2ccc(-c3cnc4[nH]nc(-c5ccc(S(C)(=O)=O)cc5)c4c3)cc2CC1` (stereo partly drawn) [Example 38, 5-(7-((R)-2-Methylpyrrolidin-1-yl)-6,7,8,9-tetrahydro-5H-benzo[7]annulen-2-yl)-3-(4-(methylsulfonyl)phenyl)-1H-pyrazolo[3,4-b]pyridine], for which the IC50 was below 0.1 µM.

`CC(C)(O)c1ccc(-c2n[nH]c3ncc(-c4ccc5c(c4)CCC4(CCCN4)CC5)cc23)cc1Cl` (centres unmarked) [Example 96, 2-[2-Chloro-4-(5-{5,6,8,9-tetrahydrospiro[benzo[7]annulene-7,2′-pyrrolidin]-3-yl}-1H-pyrazolo[3,4-b]pyridin-3-yl)phenyl]propan-2-ol] had an IC50 of 0.1 to 1 µM.

The values above are taken from patent US20240246967A1, “AXL COMPOUNDS” (ARCUS BIOSCIENCES, INC., priority 2021, published 2024).
